Measured values from patent publication US20170159112A1, “AMPLIFIED ISOTHERMAL DETECTION OF POLYNUCLEOTIDES WITH ATP RELEASE” (priority 2015, published 2017).

What was measured:
[1] = biological target: T1, Klenow fragment exo− polymerase (Escherichia coli, UniProt P00582, D355A/E357A); format: biochemical, E. coli; conditions: Kf exo−; for Km / kcat: 37° C., single nucleotide incorporation, mean ± SD of three
T1 construct: Klenow fragment of DNA polymerase I 3′-exonuclease deficient variant, Kf exo^−; purchased New England BioLabs
Text: Next we performed experiments to quantify the efficiency of ARNs as DNA polymerase substrates. We used published analytical high-resolution gel-based methods to evaluate steady state kinetics of the four nucleotides as substrates during single nucleotide incorporation experiments, with Kf exo^−. We performed similar measurements with the natural dNTPs for comparison.
Steady-State DNA Polymerase Efficiency with Chimeric ATP-Releasing Nucleotides, with Kf Exo^−.
Steady-state kinetics measurements. Steady-state kinetics assays were performed following previously published procedures (Swanson et al. Biochemistry 2011, 50, 7666-7673). The 13mer primer (SEQ ID NO:13, 5′-[…]-3′) was end labeled with T4 polynucleotide kinase and [γ-^32P]-ATP following the manufacturer's protocol. The 20mer template ODNs (SEQ ID NO:14, 5′-[…]-3′, N=A, T, C, G) were annealed with 5′-^32P-labeled 13mer primer as described above. The annealed primer-template duplex (0.05 μM) was incubated with Klenow fragment exo^− polymerase at 37° C. for 5 min in the presence of individual dNTPs or chimeric ATP-linked nucleotides at varied concentrations.
The parameters were adjusted to result in extents of reaction of 20% or less to maintain initial velocity conditions. The reaction was terminated with an equal volume of formamide gel loading buffer (95% formamide, 20 mM EDTA, 0.05% xylene cyanol and bromophenol blue). Extension products were separated on 20% denaturing polyacrylamide gels containing 8 M urea. Gel band intensities of the primer and its extension products were quantified using a Typhoon 9410 Variable Mode Imager. Quantitative imaging of bands was carried out using Image J software to determine the fraction of primer extension. The velocity was plotted as a function of dNTP (or ARN) concentration and fit with the Michaelis-Menten equation to obtain the kinetic parameters, Vmax and Km. Reactions were performed three times and the mean (±standard deviation) of Vmax and Km are reported. The kcat values were calculated by dividing the Vmax with the concentration of polmerase used. The efficiency of nucleotide incorporation was calculated by the ratio Kcat/Km.

Kf (exo-) polymerase = biological target: T2, Kf (exo-) polymerase (Escherichia coli, UniProt P00582, D355A/E357A); format: biochemical, E. coli; conditions: for signal on the T20 template sequence (misincorporation of adenosine ribonucleotide moiety): 20 μM ARN, (T)20 template, Kf polymerase
T2 construct: Klenow fragment of DNA polymerase I 3′-exonuclease deficient variant, Kf exo^−; purchased New England BioLabs
Experimental: polymerase. (A) Primer-template duplexes with (N)20 ends used in this study. (B) Luminescence signals resulting from the incorporation of ATP-linked nucleotides by Kf (exo.) polymerase. The Kf (exo.) polymerase reaction was carried out with 20 μM chimeric nucleotides and 1 μM corresponding primer template at 37° C. for 1 h. 5 μL of polymerase reaction solution were used for the luciferase reaction. […] (C) Kf (exo.) polymerase selectivity with chimeric nucleotides. The reaction was carried out using the (T)20 template and each of the four ARNs under the same reaction conditions as FIG. 2B.
FIG. 5. Selectivity of chimeric nucleotides with Kf (exo-) polymerase. Each of the four chimeric ARNs was supplied with the polymerase and the annealed primer-template duplex immediately upstream of the sequence T20 (A), C20 (B), A20 (C), and G20 (D), respectively. The polymerase reaction contained: 20 μM chimeric nucleotide, 1 μM corresponding primer/template and 1 μL Kf (exo-) polymerase in manufacturer's polymerase reaction buffer. After 1 h incubation at 37° C., 5 μL reaction solutions were added to 95 μL luciferase reaction solution. The bioluminescence signal was recorded at 1 min intervals over 1 h by microplate fluorimeter.
Our initial studies were directed at testing whether these modified nucleotides would be active as substrates for a DNA polymerase. We carried out experiments of primer extension on short synthetic primer/template duplexes (FIG. 2; 1 μM) in the presence of a standard polymerase (Klenow fragment of DNA polymerase I 3′-exonuclease deficient variant, Kf exo^−). We supplied one ARN at a time (20 μM) to its complementary template for one hour; if synthesis were successful it should generate up to ˜20 μM ATP as by-product of the reaction. We removed a small aliquot of the polymerase reaction and measured luminescence from this aliquot containing ATP in a commercial luciferase+luciferin reaction buffer over one hour (FIG. 2B). […] In this latter case we hypothesize the presence of intra- or inter-molecular G quadruplex structures that may inhibit the polymerase, possibly explaining the diminishment of ATP signal. In all four cases, signals were considerably (13-33-fold) higher than background in which primer/template DNA was omitted.
Next we tested sequence selectivity of the chimeric nucleotides, evaluating sixteen combinations of ARNs with the four DNA sequences (FIG. 2C and FIG. 5). In all cases, the correct nucleotide/target sequence combinations yielded much higher signals than incorrect combinations, showing clear nucleotide/template base selectivity. […]
Primer extension and luciferase signaling with short linear test templates. […] The bioluminescence signal was recorded by microplate fluorometer (Fluoroskan Ascent, Thermal). […]

T1 sequence (P00582 324-928 D355A/E357A): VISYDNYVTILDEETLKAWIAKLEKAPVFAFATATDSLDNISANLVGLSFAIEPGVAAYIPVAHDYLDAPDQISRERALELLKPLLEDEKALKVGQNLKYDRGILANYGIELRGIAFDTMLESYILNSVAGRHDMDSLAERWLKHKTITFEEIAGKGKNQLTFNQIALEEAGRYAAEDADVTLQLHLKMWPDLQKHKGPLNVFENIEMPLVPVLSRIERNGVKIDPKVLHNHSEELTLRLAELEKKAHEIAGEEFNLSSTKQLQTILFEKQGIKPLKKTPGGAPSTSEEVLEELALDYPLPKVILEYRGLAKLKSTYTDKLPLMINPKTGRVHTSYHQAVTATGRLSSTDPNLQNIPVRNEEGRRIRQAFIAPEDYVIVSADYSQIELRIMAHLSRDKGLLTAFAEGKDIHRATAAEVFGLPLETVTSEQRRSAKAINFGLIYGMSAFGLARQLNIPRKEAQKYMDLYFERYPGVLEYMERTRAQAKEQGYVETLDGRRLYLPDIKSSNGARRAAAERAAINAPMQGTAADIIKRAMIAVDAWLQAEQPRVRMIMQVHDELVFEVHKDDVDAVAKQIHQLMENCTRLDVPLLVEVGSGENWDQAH
T2 sequence (P00582 324-928 D355A/E357A): as above

Row | Compound | Km [1] [µM] | kcat [1] [s⁻¹] | kcat/Km less than that of native congener dNTP [1] [fold] | signal on the T20 template sequence (misincorporation of adenosine ribonucleotide moiety) (Kf (exo-) polymerase) | background signal in selectivity experiments (Kf (exo-) polymerase; sixteen combinations of ARNs with four DNA sequences)
1 | Nc1ncnc2c1ncn2[C@H]1C[C@H](O)[C@@H](COP(=O)(O)OP(=O)(O)OP(=O)(O)O)O1 [dATP, reference compound] | 0.35 ± 0.05 | 0.143 ± 0.005 |  |  | 
2 | Nc1ncnc2c1ncn2[C@@H]1O[C@H](COP(=O)(O)OP(=O)(O)OP(=O)(O)OP(=O)(O)OC[C@H]2O[C@@H](n3cnc4c(N)ncnc43)C[C@@H]2O)[C@@H](O)[C@H]1O [dAppppA, Deoxyadenosine-5′-tetraphosphate-P4-5′-Adenosine] | 1.3 ± 0.4 | 0.118 ± 0.0033 | 5 |  | 
3 | Nc1ccn([C@H]2C[C@H](O)[C@@H](COP(=O)(O)OP(=O)(O)OP(=O)(O)O)O2)c(=O)n1 [dCTP, reference compound] | 0.07 ± 0.01 | 0.233 ± 0.0067 |  |  | 
4 | Nc1ccn([C@H]2C[C@H](O)[C@@H](COP(=O)(O)OP(=O)(O)OP(=O)(O)OP(=O)(O)OC[C@H]3O[C@@H](n4cnc5c(N)ncnc54)[C@H](O)[C@@H]3O)O2)c(=O)n1 [dCppppA, Deoxycytidine-5′-tetraphosphate-P4-5′-Adenosine] | 3 ± 0.2 | 0.215 ± 0.0017 |  | lack of enhanced signal | main background signal
5 | Nc1nc2c(ncn2[C@H]2C[C@H](O)[C@@H](COP(=O)(O)OP(=O)(O)OP(=O)(O)O)O2)c(=O)[nH]1 [dGTP, reference compound] | 0.11 ± 0.01 | 0.257 ± 0.0083 |  |  | 
6 | Nc1nc2c(ncn2[C@H]2C[C@H](O)[C@@H](COP(=O)(O)OP(=O)(O)OP(=O)(O)OP(=O)(O)OC[C@H]3O[C@@H](n4cnc5c(N)ncnc54)[C@H](O)[C@@H]3O)O2)c(=O)[nH]1 [dGppppA, Deoxyguanosine-5′-tetraphosphate-P4-5′-Adenosine] | 3.5 ± 0.4 | 0.118 ± 0.0083 | 70 | lack of enhanced signal | 
7 | Cc1cn([C@H]2C[C@H](O)[C@@H](COP(=O)(O)OP(=O)(O)OP(=O)(O)O)O2)c(=O)[nH]c1=O [dTTP, reference compound] | 0.24 ± 0.06 | 0.145 ± 0.005 |  |  | 
8 | Cc1cn([C@H]2C[C@H](O)[C@@H](COP(=O)(O)OP(=O)(O)OP(=O)(O)OP(=O)(O)OC[C@H]3O[C@@H](n4cnc5c(N)ncnc54)[C@H](O)[C@@H]3O)O2)c(=O)[nH]c1=O [dTppppA, Thymidine-5′-tetraphosphate-P4-5′-Adenosine] | 2.2 ± 0.6 | 0.0617 ± 0.0017 |  | lack of enhanced signal | 
